According to the supplement of paper PMC10307832:

Columns and labels:
Experiment in all cases: relative viability (nuclei count vs DMSO), 5 days (fraction); higher = more cells survive
Tosedostat + Navitoclax = compound: CC(C)C[C@@H](C(=O)N[C@H](C(=O)OC1CCCC1)c1ccccc1)[C@H](O)C(=O)NO [Tosedostat] + CC1(C)CCC(c2ccc(Cl)cc2)=C(CN2CCN(c3ccc(C(=O)NS(=O)(=O)c4ccc(N[C@H](CCN5CCOCC5)CSc5ccccc5)c(S(=O)(=O)C(F)(F)F)c4)cc3)CC2)C1 [Navitoclax] (partner 0.5 µM)
How it was run: (§1)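 Five library-drug doses in √10 steps were combined with a fixed anchor-drug dose, or a single drug was given alone, by pin tool to lung cancer cell lines in 1536-well plates the day after seeding. Nuclei were stained and counted after 5 days. Relative viability is the nuclei count in treated wells over that in vehicle wells, taken as the median of duplicate plates.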

Tosedostat + Pemetrexed = compound: CC(C)C[C@@H](C(=O)N[C@H](C(=O)OC1CCCC1)c1ccccc1)[C@H](O)C(=O)NO [Tosedostat] + Nc1nc2[nH]cc(CCc3ccc(C(=O)N[C@@H](CCC(=O)O)C(=O)O)cc3)c2c(=O)[nH]1 [Pemetrexed] (partner 0.2 µM)
How it was run: as §1

Tosedostat + Bortezomib = compound: CC(C)C[C@@H](C(=O)N[C@H](C(=O)OC1CCCC1)c1ccccc1)[C@H](O)C(=O)NO [Tosedostat] + CC(C)C[C@H](NC(=O)[C@H](Cc1ccccc1)NC(=O)c1cnccn1)B(O)O [Bortezomib] (partner 0.002 µM)
How it was run: as §1

[1] = compound: CC1=NN=C(O1)C2=NN=C(C=C2)N3CCC(CC3)OC4=C(C=CC(=C4)F)Cl + N=C(N)NC(=N)NCCc1ccccc1 [Phenformin] (partner 250 µM)
How it was run: as §1

Cell Line | relative viability (Tosedostat + Navitoclax; first compound 0.02 µM) | relative viability (Tosedostat + Navitoclax; first compound 0.06325 µM) | relative viability (Tosedostat + Navitoclax; first compound 0.2 µM) | relative viability (Tosedostat + Navitoclax; first compound 0.6325 µM) | relative viability (Tosedostat + Navitoclax; first compound 2 µM) | relative viability (Tosedostat + Pemetrexed; first compound 0.02 µM) | relative viability (Tosedostat + Pemetrexed; first compound 0.06325 µM) | relative viability (Tosedostat + Pemetrexed; first compound 0.2 µM) | relative viability (Tosedostat + Pemetrexed; first compound 0.6325 µM) | relative viability (Tosedostat + Pemetrexed; first compound 2 µM) | relative viability (Tosedostat + Bortezomib; first compound 0.02 µM) | relative viability (Tosedostat + Bortezomib; first compound 0.06325 µM) | relative viability (Tosedostat + Bortezomib; first compound 0.2 µM) | relative viability (Tosedostat + Bortezomib; first compound 0.6325 µM) | relative viability (Tosedostat + Bortezomib; first compound 2 µM) | relative viability ([1]; first compound 0.253 µM) | relative viability ([1]; first compound 0.8 µM) | relative viability ([1]; first compound 2.53 µM) | relative viability ([1]; first compound 8 µM)
NCI-H2228 | 1 | 0.856 | 0.781 | 0.961 | 0.793 | 0.328 | 0.32 | 0.317 | 0.338 | 0.256 | 1.33 | 0.948 | 0.827 | 0.896 | 0.744 | 0.313 | 0.257 | 0.294 | 0.401
NCI-H2347 | 0.671 | 0.8 | 0.766 | 0.688 | 0.68 | 0.443 | 0.425 | 0.434 | 0.421 | 0.374 | 1.25 | 1.36 | 1.35 | 1.05 | 0.694 |  | 0.382 | 0.493 | 0.359
NCI-H2405 | 1.18 | 0.846 | 0.82 | 0.812 | 0.611 | 1.02 | 1.04 | 1.05 | 0.875 | 0.85 | 1.04 | 0.949 | 1 | 0.937 | 0.883 | 0.406 | 0.383 | 0.37 | 0.328
NCI-H3122 | 1.05 | 1.05 | 0.996 | 1.05 | 1.03 | 0.206 | 0.213 | 0.21 | 0.312 | 0.325 | 1.02 | 1.03 | 1.1 | 1.05 | 1.02 | 0.324 | 0.282 | 0.253 | 0.275
PC-3 [JPC-3] | 0.85 | 0.837 | 0.825 | 0.678 | 0.638 | 1.03 | 1.18 | 0.918 | 0.901 | 0.54 | 0.819 | 0.771 | 0.823 | 0.776 | 0.552 | 0.433 | 0.406 | 0.426 | 0.412
PC-14 | 1.03 | 0.999 | 1.04 | 0.994 | 1.06 | 0.125 | 0.135 | 0.157 | 0.124 | 0.09 | 0.79 | 0.814 | 0.896 | 0.845 | 0.944 | 0.656 |  | 0.463 | 0.567
RERF-LC-KJ | 1.03 | 0.953 | 0.948 | 0.517 | 0.614 | 0.49 | 0.499 | 0.51 | 0.486 | 0.466 | 1.13 | 1.3 | 1.05 | 0.923 | 0.892 | 0.389 | 0.434 | 0.466 | 0.392
SK-LU-1 | 0.889 | 0.854 | 0.939 | 0.608 | 0.771 | 1 | 0.9 | 1.05 | 0.962 | 0.868 | 1.33 | 1.14 | 1.15 | 0.921 | 0.718 | 0.584 |  | 0.534 | 0.475
SW 1573 | 1.06 | 1.05 | 1.06 | 0.796 | 0.959 | 0.972 | 0.856 | 0.899 | 0.777 | 1 | 1.1 | 0.96 | 0.938 | 0.709 | 0.949 | 0.371 | 0.329 | 0.351 | 0.363
